Test system: not listed separately
Experiment: Pharmacokinetics in rats (plasma) after oral administration
Conditions: male, SD, rat, 5 mg/kg

SMILES	AUC(0-inf) [ng·h/mL]	Cmax [ng/mL]	MRT inf [h]	Tmax [h]	half-life [h]
Nc1nc2cnc(C(=O)N(N)C3COCc4c3ccn3c(C(F)(F)F)cnc43)cc2c2c1COC2 (centres unmarked) [Example 424, 4-Amino-N-(3-(trifluoromethyl)-7,10-dihydro-8H-imidazo[1,2-a]pyrano[3,4-c]pyridin-7-yl)-1,3-dihydrofuro[3,4-c][1,7]naphthyridine-8-carbohydrazide]	2380	226	8.9	2.7	6.1

Molecular target: T1, PRMT5/MEP50-MTA protein complex (Homo sapiens, UniProt O14744)
T1 construct: purchased Viva Biotech
T1 sequence (O14744 whole entry): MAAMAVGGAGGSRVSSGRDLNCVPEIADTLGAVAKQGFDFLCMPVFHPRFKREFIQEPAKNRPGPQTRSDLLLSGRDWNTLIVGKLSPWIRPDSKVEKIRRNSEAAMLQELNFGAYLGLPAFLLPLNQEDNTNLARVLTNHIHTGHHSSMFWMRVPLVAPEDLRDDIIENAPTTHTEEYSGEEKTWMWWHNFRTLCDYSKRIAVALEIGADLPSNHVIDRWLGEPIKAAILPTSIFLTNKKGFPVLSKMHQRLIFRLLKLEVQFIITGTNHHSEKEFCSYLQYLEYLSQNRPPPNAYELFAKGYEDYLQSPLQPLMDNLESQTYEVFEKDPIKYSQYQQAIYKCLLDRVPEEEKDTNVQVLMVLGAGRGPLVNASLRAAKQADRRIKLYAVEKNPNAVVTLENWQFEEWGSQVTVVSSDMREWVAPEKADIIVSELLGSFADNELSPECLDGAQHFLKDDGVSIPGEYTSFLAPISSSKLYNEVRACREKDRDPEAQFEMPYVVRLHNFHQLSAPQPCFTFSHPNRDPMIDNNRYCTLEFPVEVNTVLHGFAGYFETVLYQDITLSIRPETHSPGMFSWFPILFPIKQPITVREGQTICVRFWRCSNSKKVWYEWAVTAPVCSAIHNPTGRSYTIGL
T1 sequence (Q9BQA1 whole entry partner): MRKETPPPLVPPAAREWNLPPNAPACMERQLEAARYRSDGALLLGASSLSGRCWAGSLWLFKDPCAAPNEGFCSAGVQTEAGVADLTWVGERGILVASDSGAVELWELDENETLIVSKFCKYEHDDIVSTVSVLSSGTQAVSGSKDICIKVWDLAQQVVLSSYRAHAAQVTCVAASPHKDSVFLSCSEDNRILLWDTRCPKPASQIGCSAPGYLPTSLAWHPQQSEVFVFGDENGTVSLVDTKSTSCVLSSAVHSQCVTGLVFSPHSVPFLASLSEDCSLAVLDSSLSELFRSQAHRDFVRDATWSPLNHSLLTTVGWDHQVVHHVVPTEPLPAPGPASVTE
Experiment: Thermal shift assay: change in melting temperature of the PRMT5/MEP50-MTA protein complex
Type: binding
Conditions: compound 8 µM, PRMT5/MEP50 2 µM, MTA 2 µM; Tm minus DMSO vehicle control
Text: Test Example 1: Determination of the ability of the compounds of the present invention to improve the thermal stability (melting temperature) of the PRMT5/MEP50-MTA protein complex.
1. Experimental objective: The objective of this test example is to determine the ability of the compound to improve the thermal stability of the PRMT5/MEP50-MTA protein complex, resulting in an increase in the protein melting temperature. 2. Experimental instruments: Quantitative PCR instrument (Quantstudio6 Flex) was purchased from Life Technologies; pipettes were purchased from Eppendorf or Rainin. 3. Experimental reagents and consumables: PRMT5/MEP50 protein was prepared by Viva Biotech; HEPES was purchased from Thermo Fisher Scientific (Cat. No. 15630080); DTT was purchased from Sigma (Cat. No. 43816-10ml); sodium chloride was purchased from Invitrogen (Cat. No. AM9760G); Protein Thermal Shift™ Dye Kit was purchased from Thermo Fisher Scientific (Cat. No. 4461146); methylthioadenosine (MTA) was purchased from Sigma (Cat. No. D5011). 4. Experimental methods: In this experiment, the thermal shift method was used to measure the change in the melting temperature (Tm) of the PRMT5/MEP50-MTA protein complex before and after compound binding, thereby characterising the ability of the compound to improve the thermal stability of the PRMT5/MEP50-MTA protein complex. A solution containing 50 mM HEPES, 10 mM DTT, 2 µM MTA, SYPRO Orange and 250 mM NaCl was prepared as the experimental buffer. Human PRMT5/MEP50 protein was added to a final concentration of 2 µM, and the mixture was incubated at room temperature for 30 minutes. The above reaction mixture was aliquoted into 8-strip PCR tubes at 19.5 µL per tube. Then 0.5 µL of test compound or DMSO was added to each tube, providing a total reaction volume of 20 µL and a final compound concentration of 8 µM. 2.5% DMSO was set as the vehicle control. After incubation at room temperature for 10 minutes, the PCR tubes were placed in a PCR instrument, and the melt curve function was selected to measure the melting temperature of the PRMT5/MEP50-MTA protein complex in different treatment groups (heated from 25°C to 95°C, 0.03°C/s). 5. Experimental data processing method: The experimental data files from the PCR instrument were imported into the thermal shift software to obtain the melting temperature (Tm) for each treatment group.

SMILES	ΔTm at 8 µM [°C]	ΔTm (°C)
CNN(C(=O)c1cc2c3c(c(N)nc2cc1F)COC3)C1COCc2nc(C(F)(F)F)ccc21 (racemic) [Example 306]	12.7	–
CNN(C(=O)c1cc2c(cn1)nc(N)c1cncn12)C1COc2cc(S(F)(F)(F)(F)F)ccc21 (racemic) [Example 385, 4-Amino-N'-methyl-N-(6-(pentafluoro-6-sulphanyl)-2,3-dihydrobenzofuran-3-yl)imidazo [1,5-a] pyrido [3,4-e] pyrazine-8-carbohydrazide]	11.6	–
CNN(C(=O)c1ccc2nc(N)c3cnn(C)c3c2c1)C1COc2cc(S(F)(F)(F)(F)F)ccc21 (racemic) [Example 450, 4-Amino-N',1-dimethyl-N-(6-(pentafluoro-6-sulphanyl)-2,3-dihydrobenzofuran-3-yl)-1H-pyrazolo[4,3-c]quinoline-8-carbohydrazide]	12	–
[2H]C([2H])([2H])NN(C(=O)c1cc2c3c(c(N)nc2cc1C)COC3)C1COCc2c1ccn1c(C(F)(F)F)cnc21 (single isomer, unassigned) [Example 357-P1]	–	12.45
CNN(C(=O)c1cc2c(cn1)nc(N)c1cncn12)C1COc2cc(S(F)(F)(F)(F)F)ccc21 (single isomer, unassigned) [Example 385-P1]	14	–
CNN(C(=O)c1cc2c(cn1)nc(N)c1cncn12)C1COc2cc(S(F)(F)(F)(F)F)ccc21 (single isomer, unassigned) [Example 385-P2]	–	12.31
CN(C(=O)c1ccc2nc(N)c3cnn(C)c3c2c1)[C@@H]1COCc2c1ccn1cc(Br)nc21 [Example 37-P1, (S)-4-amino-N-(2-bromo-7,10-dihydro-8H-imidazo[1,2-a]pyrano[3,4-c]pyridin-7-yl)-N,1-dimethyl-1H-pyrazolo[4,3-c]quinoline-8-carboxamide]	10.5	–
Cc1cc2nc(N)c3cncn3c2cc1C(=O)N(C)C1COCc2c1ccn1cc(C(F)(F)F)nc21 (centres unmarked) [Example 39, 4-Amino-N,7-dimethyl-N-(2-(trifluoromethyl)-7,10-dihydro-8H-imidazo[1,2-a]pyrano[3,4-c]pyridin-7-yl)imidazo[1,5-a]quinoxaline-8-carboxamide]	11.7	–
Cc1cc2nc(N)c3cncn3c2cc1C(=O)N(C)C1COCc2c1ccc1nc(C(F)(F)F)cn21 (centres unmarked) [Example 48, 4-Amino-N,7-dimethyl-N-(8-(trifluoromethyl)-3,4-dihydro-1H-imidazo[1,2-a]pyrano[4,3-e]pyridin-4-yl)imidazo[1,5-a]quinoxaline-8-carboxamide]	11.7	–
CN(C(=O)c1ccc2nc(N)c3cnn(C)c3c2c1)C1COCc2c1ccc1cc(C(F)(F)F)cnc21 (centres unmarked) [Example 68, 4-Amino-N,1-dimethyl-N-(3-(trifluoromethyl)-7,10-dihydro-8H-pyrano[4,3-h]quinolin-7-yl)-1H-pyrazolo[4,3-c]quinoline-8-carboxamide]	10.4	–
CN(C(=O)c1ccc2nc(N)c3cnn(C)c3c2c1)C1COCc2c1ccc1nc(C(F)(F)F)cn21 (centres unmarked) [Example 81, 4-Amino-N,1-dimethyl-N-(8-(trifluoromethyl)-3,4-dihydro-1H-imidazo[1,2-a]pyrano[4,3-e]pyridin-4-yl)-1H-pyrazolo[4,3-c]quinoline-8-carboxamide]	10.4	–
Cc1cc2nc(N)c3cncn3c2cc1C(=O)N(C1CC(=C(F)F)C1)C1COCc2c1ccn1c(C(F)(F)F)cnc21 (centres unmarked) [Example 144, 4-Amino-N-[3-(difluoromethylene)cyclobutyl]-7-methyl-N-[5-(trifluoromethyl)-12-oxa-3,6-diazatricyclo[7.4.0.02,6]trideca-1(9),2,4,7-tetraen-10-yl]imidazo[1,5-a]quinoxaline-8-carboxamide]	10.2	–
Cc1cc2nc(N)c3cncn3c2cc1C(=O)N(C)C1COCc2c1ccn1c(N=S(C)(C)=O)cnc21 (centres unmarked) [Example 146, 4-Amino-N-(3-((dimethyl(carbonyl)-16-sulphanylidene)amino)-7,10-dihydro-8H-imidazo[1,2-a]pyrano[3,4-c]pyridin-7-yl)-N,7-dimethylimidazo[1,5-a]quinoxaline-8-carboxamide]	10.2	–
CN(C(=O)c1cc2c(cc1F)nc(N)c1cncn12)C1COCc2c1ccn1c(C(F)(F)F)c(C(=O)N3CC(=C(F)F)C3)nc21 (centres unmarked) [Example 234, 4-Amino-N-(2-(3-(difluoromethylene)azetidine-1-carbonyl)-3-(trifluoromethyl)-7,10-dihydro-8H-imidazo[1,2-a]pyrano[3,4-c]pyridin-7-yl)-7-fluoro-N-methylimidazo[1,5-a]quinoxaline-8-carboxamide]	10.9	–
CN(C(=O)c1cc2c(cc1F)nc(N)c1cncn12)C1COCc2c1ccn1c(C(F)=C3CCCCC3)cnc21 (centres unmarked) [Example 240, 4-Amino-N-(3-(cyclohexylidenefluoromethyl)-7,10-dihydro-8H-imidazo[1,2-a]pyrano[3,4-c]pyridin-7-yl)-7-fluoro-N-methylimidazo[1,5-a]quinoxaline-8-carboxamide]	10.8	–
CNN(C(=O)c1cc2c(cc1C)nc(N)c1cncn12)C1COCc2nc(C(F)(F)F)ccc21 (centres unmarked) [Example 278, 4-Amino-N',7-dimethyl-N-(2-(trifluoromethyl)-5,8-dihydro-6H-pyrano[3,4-b]pyridin-5-yl)imidazo[1,5-a]quinoxaline-8-carbohydrazide]	12.7	–
CNN(C(=O)c1cc2c(cc1C)nc(N)c1cncn12)[C@@H]1COCc2nc(C(F)(F)F)ccc21 [Example 278-P1, (S)-4-amino-N',7-dimethyl-N-(2-(trifluoromethyl)-5,8-dihydro-6H-pyrano[3,4-b]pyridin-5-yl)imidazo[1,5-a]quinoxaline-8-carbohydrazide]	12.6	–
Nc1nc2cc(F)c(C(=O)N(N)C3COCc4nc(C(F)(F)F)ccc43)cc2n2cncc12 (centres unmarked) [Example 280, 4-Amino-7-fluoro-N-(2-(trifluoromethyl)-5,8-dihydro-6H-pyrano[3,4-b]pyridin-5-yl)imidazo[1,5-a]quinoxaline-8-carbohydrazide]	10.9	–
CNN(C(=O)c1cc2c(cc1C)nc(N)c1cncn12)C1COCc2c1ccn1c(C(F)(F)F)cnc21 (centres unmarked) [Example 281, 4-Amino-N',7-dimethyl-N-(3-(trifluoromethyl)-7,10-dihydro-8H-imidazo[1,2-a]pyrano[3,4-c]pyridin-7-yl)imidazo[1,5-a]quinoxaline-8-carbohydrazide]	12.7	–
CNN(C(=O)c1cc2c3c(c(N)nc2cn1)COC3)C1COCc2nc(C(F)(F)F)ccc21 (centres unmarked) [Example 286, 4-Amino-N'-methyl-N-(2-trifluoromethyl-5,8-dihydro-6H-pyrano[3,4-b]pyridin-5-yl)-1,3-dihydrofuro[3,4-c] [1,7]naphthyridine-8-carbohydrazide]	10.5	–
CNN(C(=O)c1cc2c3c(c(N)nc2cn1)COC3)C1COCc2cc(C(F)(F)F)ccc21 (centres unmarked) [Example 298, 4-Amino-N'-methyl-N-(7-(trifluoromethyl)isochroman-4-yl)-1,3-dihydrofuro[3,4-c][1,7]diazanaphthalene-8-carbohydrazide]	11.4	–
[2H]C([2H])([2H])NN(C(=O)c1cc2c3c(c(N)nc2cn1)C(C)OC3)[C@@H]1COCc2nc(C(F)(F)F)ccc21 (some centres unmarked) [Example 322]	10.7	–
[2H]C([2H])([2H])NN(C(=O)c1cc2c3c(c(N)nc2cn1)COC3)C1([2H])COCc2c1ccn1c(C(F)(F)F)cnc21 (centres unmarked) [Example 354, 4-Amino-N'-(methyl-d3)-N-(3-(trifluoromethyl)-7,10-dihydro-8H-imidazo[1,2-a]pyrano[3,4-c]pyridin-7-yl-7-d)-1,3-dihydrofuro[3,4-c][1,7]naphthyridine-8-carbohydrazide]	10.8	–
[2H]C([2H])([2H])NN(C(=O)c1cc2c3c(c(N)nc2cn1)C(C)OC3)C1COCc2c1ccn1c(C(F)(F)F)cnc21 (centres unmarked) [Example 362, 4-Amino-3-methyl-N'-(trideuteriomethyl)-N-(3-trifluoromethyl-7,10-dihydro-8H-imidazo[1,2-a]pyrano[3,4-c]pyridin-7-yl)-1,3-dihydrofuro[3,4-c] naphthyridine-8-carbohydrazide]	11.2	–
